Experimental data: patent US7902181B2, “Compounds 010” (AstraZeneca AB, priority 2007, dated 2011)
Structures can show the parent of a compound that is named as a salt.

Target: Recombinant Human (rh) DPP1 (Homo sapiens, UniProt P53634)
Experiment: Fluorescence Assay for Recombinant Human (rh) DPP1
Type: biochemical
Settings: rhDPP1; substrate H-Gly-Arg-AMC; pH5.0; 30 min pre-incubation, 60 min reaction at 22° C.; highest concentration 10 μM; read-out: DPP1 activity, pIC50 (converted)
Summary of the method: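 Release of AMC from 100 μM H-Gly-Arg-AMC by rhDPP1 ([…]) in 25 mM piperazine pH 5.0, 50 mM NaCl, 5 mM DTT, 0.01% Triton X-100, 1% DMSO, 22 °C. Inhibitors (12-point half-log, top 10 μM) preincubated 30 min, reaction 60 min, fluorescence at 350/450 nm; pIC50 from 4-parameter logistic fit.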

Recombinant Human (rh) DPP1, sequence (P53634 25-463): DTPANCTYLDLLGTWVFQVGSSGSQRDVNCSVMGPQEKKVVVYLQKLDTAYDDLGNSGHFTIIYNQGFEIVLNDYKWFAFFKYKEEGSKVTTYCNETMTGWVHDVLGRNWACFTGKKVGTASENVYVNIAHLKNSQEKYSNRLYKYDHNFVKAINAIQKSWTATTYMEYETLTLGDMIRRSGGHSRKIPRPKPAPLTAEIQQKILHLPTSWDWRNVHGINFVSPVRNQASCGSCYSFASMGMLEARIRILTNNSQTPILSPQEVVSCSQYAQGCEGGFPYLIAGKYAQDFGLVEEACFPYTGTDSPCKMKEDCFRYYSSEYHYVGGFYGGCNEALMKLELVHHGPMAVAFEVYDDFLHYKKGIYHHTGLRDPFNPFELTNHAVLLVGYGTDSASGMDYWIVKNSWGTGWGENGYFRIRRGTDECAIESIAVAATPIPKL

SMILES	IC50
N#Cc1ccc(-c2cccc(C[C@@H](C#N)NC(=O)[C@@H]3CCCCN3)c2)cc1 [Example 100, (S)-N-((S)-1-Cyano-2-(4′-cyanobiphenyl-3-yl)ethyl)piperidine-2-carboxamide Trifluoroacetate]	1000 nM
N#Cc1ccc(-c2ccc([C@H]3C[C@@]3(C#N)NC(=O)[C@@H]3CCCCN3)cc2)cc1 [Example 103, (S)-N-((1R,2R)-1-Cyano-2-(4′-cyanobiphenyl-4-yl)cyclopropyl)piperidine-2-carboxamide Trifluoroacetate]	158 nM
N#C[C@@]1(NC(=O)[C@@H]2CCCCN2)C[C@@H]1c1ccc(-c2ccc(S(=O)(=O)N3CCC3)cc2)cc1 [Example 104, (S)-N-((1R,2R)-2-(4′-(Azetidin-1-ylsulfonyl)biphenyl-4-yl)-1-cyanocyclopropyl)piperidine-2-carboxamide Trifluoroacetate]	79.4 nM
N#C[C@H](Cc1ccc(-c2cccc(CN3CCOCC3)c2)cc1)NC(=O)[C@@H]1CCCCN1 [Example 109, (S)-N-((S)-1-Cyano-2-(3′-(morpholinomethyl)biphenyl-4-yl)ethyl)piperidine-2-carboxamide Ditrifluoroacetate]	158 nM
N#C[C@H](Cc1ccc(-c2ccc3c(c2)CCNC3)cc1)NC(=O)[C@@H]1CCCCN1 [Example 110, (S)-N-((S)-1-Cyano-2-(4-(1,2,3,4-tetrahydroisoquinolin-6-yl)phenyl)ethyl)piperidine-2-carboxamide Ditrifluoroacetate]	158 nM

Further lines, results first:

IC50	SMILES
39.8 nM	CS(=O)(=O)c1cc(-c2ccc(C[C@@H](C#N)NC(=O)[C@@H]3CCCCN3)cc2)ccc1CC#N [Example 101, (S)-N-((S)-1-Cyano-2-(4′-(cyanomethyl)-3′-(methylsulfonyl)biphenyl-4-yl)ethyl)-piperidine-2-carboxamide Trifluoroacetate]
3160 nM	N#C[C@H](Cc1ccc(S(=O)(=O)c2ccccc2)cc1)NC(=O)[C@@H]1CCCCN1 [Example 102, (S)-N-((S)-1-Cyano-2-(4-(phenylsulfonyl)phenyl)ethyl)piperidine-2-carboxamide]
20 nM	N#C[C@H](Cc1ccc(-c2ccc(OC(F)(F)F)cc2)cc1)NC(=O)[C@@H]1CCCCN1 [Example 105, (S)-N-((S)-1-Cyano-2-(4′-(trifluoromethoxy)biphenyl-4-yl)ethyl)piperidine-2-carboxamide]
12.6 nM	CS(=O)(=O)c1ccc(-c2ccc(C[C@@H](C#N)NC(=O)[C@@H]3CCCCN3)cc2)cc1 [Example 106, (S)-N-((S)-1-Cyano-2-(4′-(methylsulfonyl)biphenyl-4-yl)ethyl)piperidine-2-carboxamide]
5.01 nM	CCN1CCN(S(=O)(=O)c2ccc(-c3ccc(CC(C#N)NC(=O)[C@@H]4CCCCN4)cc3)cc2)CC1 (stereo partly drawn) [Example 107, ((2S)-N-(1-Cyano-2-(4′-(4-ethylpiperazin-1-ylsulfonyl)biphenyl-4-yl)ethyl)piperidine-2-carboxamide Ditrifluoroacetate]
31.6 nM	CN1CCCN(S(=O)(=O)c2ccc(-c3ccc(CC(C#N)NC(=O)[C@@H]4CCCCN4)cc3)cc2)CC1 (stereo partly drawn) [Example 108, (2S)-N-(1-Cyano-2-(4′-(4-methyl-1,4-diazepan-1-ylsulfonyl)biphenyl-4-yl)ethyl)piperidine-2-carboxamide Ditrifluoroacetate]
